Assay results published in patent publication US10941157B2, “Pesticidal compositions and uses thereof” (Gilead Apollo, LLC, priority 2015, dated 2021).
In brackets after ≈: the same amount, converted by molar mass. Like-named read-outs stand apart in the source and are kept apart here.

How the values were obtained:
Assay type in all cases: cell-based
[1] = system: Botrtyis cinerea (Bc); experiment: In vitro pathogen growth inhibition assay, Bc; conditions: 48 h
Outline: (§1)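 Spores in 17% V8 liquid medium, or 1.5 mm Rs mycelial plugs in ¼ PDB, incubated with compound; final concentration checked by OD600 for precipitation. OD readings at 24 and 48 h, blank-subtracted, plus visual ratings; value is concentration giving ≥90% growth inhibition.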

[2] = system: Collectotrichum graminicola (Cg); experiment: In vitro pathogen growth inhibition assay, Cg; conditions: 48 h
Outline: as §1

[3] = system: Diplodia maydis (Dm); experiment: In vitro pathogen growth inhibition assay, Dm; conditions: Stenocarpella maydis, 48 h
Outline: as §1

[4] = system: Fusarium moniliforme (Fm); experiment: In vitro pathogen growth inhibition assay, Fm; conditions: Fusarium verticillioides
Outline: as §1

[5] = system: Fusarium virguliforme (Fv); experiment: In vitro pathogen growth inhibition assay, Fv
Outline: as §1

[6] = system: Phytophthora capsici (Pc); experiment: In vitro pathogen growth inhibition assay, Pc; conditions: 48 h
Outline: as §1

[7] = system: Rhizoctonia solani (Rs); experiment: In vitro pathogen growth inhibition assay, Rs (mycelial plugs); conditions: Rhizoctonia solani, 48 h, mycelial plugs
Outline: as §1

[8] = system: Septoria tritici (St); experiment: In vitro pathogen growth inhibition assay, St; conditions: Zymoseptoria tritici, 48 h
Outline: as §1

[9] = ≥90% inhibition, 48 hours vs 2% DMSO control, read-out: Compound Concentration (ppm) sufficient for ≥90% inhibition of growth, Bc
[10] = ≥90% inhibition, 48 hours vs 2% DMSO control, read-out: Compound Concentration (ppm) sufficient for ≥90% inhibition of growth, Cg
[11] = ≥90% inhibition, 48 hours vs 2% DMSO control, read-out: Compound Concentration (ppm) sufficient for ≥90% inhibition of growth, Dm
[12] = ≥90% inhibition, 48 hours vs 2% DMSO control, read-out: Compound Concentration (ppm) sufficient for ≥90% inhibition of growth, Fm
[13] = ≥90% inhibition, 48 hours vs 2% DMSO control, read-out: Compound Concentration (ppm) sufficient for ≥90% inhibition of growth, Fv
[14] = ≥90% inhibition, 48 hours vs 2% DMSO control, read-out: Compound Concentration (ppm) sufficient for ≥90% inhibition of growth, Pc
[15] = ≥90% inhibition, 48 hours vs 2% DMSO control, read-out: Compound Concentration (ppm) sufficient for ≥90% inhibition of growth, Rs
[16] = ≥90% inhibition, 48 hours vs 2% DMSO control, read-out: Compound Concentration (ppm) sufficient for ≥90% inhibition of growth, St
[17] = ≥90% growth inhibition, 48 hours, vs 2% DMSO control, read-out: Compound Concentration (ppm) sufficient for ≥90% inhibition of Bc
[18] = ≥90% growth inhibition, 48 hours, vs 2% DMSO control, read-out: Compound Concentration (ppm) sufficient for ≥90% inhibition of Cg
[19] = ≥90% growth inhibition, 48 hours, vs 2% DMSO control, read-out: Compound Concentration (ppm) sufficient for ≥90% inhibition of Dm
[20] = ≥90% growth inhibition, 48 hours, vs 2% DMSO control, read-out: Compound Concentration (ppm) sufficient for ≥90% inhibition of Fm
[21] = ≥90% growth inhibition, 48 hours, vs 2% DMSO control, read-out: Compound Concentration (ppm) sufficient for ≥90% inhibition of Fv
[22] = ≥90% growth inhibition, 48 hours, vs 2% DMSO control, read-out: Compound Concentration (ppm) sufficient for ≥90% inhibition of Pc
[23] = ≥90% growth inhibition, 48 hours, vs 2% DMSO control, read-out: Compound Concentration (ppm) sufficient for ≥90% inhibition of Rs
[24] = ≥90% growth inhibition, 48 hours, vs 2% DMSO control, read-out: Compound Concentration (ppm) sufficient for ≥90% inhibition of St

Structure (SMILES)	IC90 [1, 9]	IC90 [2, 10]	IC90 [3, 11]	IC90 [4, 12]	IC90 [5, 13]	IC90 [6, 14]	IC90 [7, 15]	IC90 [8, 16]	IC90 [1, 17]	IC90 [2, 18]	IC90 [3, 19]	IC90 [4, 20]	IC90 [5, 21]	IC90 [6, 22]	IC90 [7, 23]	IC90 [8, 24]
COc1ccc(F)cc1[C@H](Cn1c(=O)n(C(C)(C)C(N)=O)c(=O)c2c(C)c(-n3cccn3)sc21)OC1CCOCC1 [Compound I-146]	2 µg/mL (≈ 3.41 µM)	10 µg/mL (≈ 17.1 µM)	50 µg/mL (≈ 85.4 µM)	2 µg/mL (≈ 3.41 µM)	50 µg/mL (≈ 85.4 µM)	> 50 µg/mL	50 µg/mL (≈ 85.4 µM)	> 50 µg/mL	–	–	–	–	–	–	–	–
COc1ccc(F)cc1[C@H](Cn1c(=O)n(C(C)(C)C(N)=O)c(=O)c2c(C)c(-n3cccn3)sc21)O[C@H]1CC[C@@H](O)CC1 [Compound I-150]	2 µg/mL (≈ 3.34 µM)	50 µg/mL (≈ 83.4 µM)	≥ 10 µg/mL	2 µg/mL (≈ 3.34 µM)	10 µg/mL (≈ 16.7 µM)	> 50 µg/mL	10 µg/mL (≈ 16.7 µM)	> 50 µg/mL	–	–	–	–	–	–	–	–
COc1ccccc1[C@H](Cn1c(=O)n(C(C)(C)C(=O)N2CC(O)C2)c(=O)c2c(C)c(-n3nccn3)sc21)OC1CCOCC1 [Compound I-156]	10 µg/mL (≈ 16 µM)	50 µg/mL (≈ 80 µM)	50 µg/mL (≈ 80 µM)	2 µg/mL (≈ 3.2 µM)	10 µg/mL (≈ 16 µM)	> 50 µg/mL	10 µg/mL (≈ 16 µM)	> 50 µg/mL	–	–	–	–	–	–	–	–
COc1ccccc1[C@H](Cn1c(=O)n(C(C)(C)C(=O)NC(C)C)c(=O)c2c(C)c(-n3cccn3)sc21)OC1CCOCC1 [Compound I-157]	10 µg/mL (≈ 16.4 µM)	≥ 10 µg/mL	10 µg/mL (≈ 16.4 µM)	2 µg/mL (≈ 3.28 µM)	≥ 10 µg/mL	> 50 µg/mL	50 µg/mL (≈ 82 µM)	≥ 50 µg/mL	–	–	–	–	–	–	–	–
COc1ccc(F)cc1[C@H](Cn1c(=O)n(C(C)(C)C(=O)O)c(=O)c2c(C)c(-n3nccn3)sc21)OC1CCC(=O)CC1 [Compound I-158]	10 µg/mL (≈ 16.7 µM)	> 50 µg/mL	50 µg/mL (≈ 83.4 µM)	2 µg/mL (≈ 3.34 µM)	> 50 µg/mL	50 µg/mL (≈ 83.4 µM)	10 µg/mL (≈ 16.7 µM)	> 50 µg/mL	–	–	–	–	–	–	–	–
COc1ccc(F)cc1[C@H](Cn1c(=O)n(C(C)(C)C(=O)N2CCCC2)c(=O)c2c(C)c(-n3cccn3)sc21)OCCO [Compound I-159]	10 µg/mL (≈ 16.7 µM)	≥ 10 µg/mL	≥ 50 µg/mL	2 µg/mL (≈ 3.34 µM)	2 µg/mL (≈ 3.34 µM)	> 50 µg/mL	≥ 10 µg/mL	> 50 µg/mL	–	–	–	–	–	–	–	–
COc1ccc(F)cc1[C@H](Cn1c(=O)n(C(C)(C)C(=O)NCC#N)c(=O)c2c(C)c(-n3nccn3)sc21)OC(C)C [Compound I-160]	2 µg/mL (≈ 3.43 µM)	≥ 10 µg/mL	10 µg/mL (≈ 17.1 µM)	2 µg/mL (≈ 3.43 µM)	2 µg/mL (≈ 3.43 µM)	> 50 µg/mL	≥ 50 µg/mL	> 50 µg/mL	–	–	–	–	–	–	–	–
COc1ccc(F)cc1[C@H](Cn1c(=O)n(C(C)(C)C(=O)N2CCCC2)c(=O)c2c(C)c(-n3cccn3)sc21)OC[C@H](C)O [Compound I-161]	10 µg/mL (≈ 16.3 µM)	10 µg/mL (≈ 16.3 µM)	50 µg/mL (≈ 81.5 µM)	2 µg/mL (≈ 3.26 µM)	10 µg/mL (≈ 16.3 µM)	> 50 µg/mL	≥ 2 µg/mL	> 50 µg/mL	–	–	–	–	–	–	–	–
COc1ccc(F)cc1[C@H](Cn1c(=O)n(C(C)(C)C(=O)N2CC=CC2)c(=O)c2c(C)c(-n3cccn3)sc21)OC1CCOCC1 [Compound I-162]	10 µg/mL (≈ 15.7 µM)	2 µg/mL (≈ 3.14 µM)	10 µg/mL (≈ 15.7 µM)	2 µg/mL (≈ 3.14 µM)	10 µg/mL (≈ 15.7 µM)	> 50 µg/mL	2 µg/mL (≈ 3.14 µM)	> 50 µg/mL	–	–	–	–	–	–	–	–
COCCO[C@@H](Cn1c(=O)n(C(C)(C)C(=O)NC(C)C)c(=O)c2c(C)c(-n3cccn3)sc21)c1cc(F)ccc1OC [Compound I-163]	–	–	–	–	–	–	–	–	10 µg/mL (≈ 16.6 µM)	50 µg/mL (≈ 83.1 µM)	≥ 10 µg/mL	2 µg/mL (≈ 3.32 µM)	2 µg/mL (≈ 3.32 µM)	> 50 µg/mL	10 µg/mL (≈ 16.6 µM)	> 50 µg/mL
COCCO[C@@H](Cn1c(=O)n(C(C)(C)C(=O)N2CCCC2)c(=O)c2c(C)c(-n3nccn3)sc21)c1cc(F)ccc1OC [Compound I-164]	–	–	–	–	–	–	–	–	50 µg/mL (≈ 81.3 µM)	10 µg/mL (≈ 16.3 µM)	10 µg/mL (≈ 16.3 µM)	2 µg/mL (≈ 3.25 µM)	2 µg/mL (≈ 3.25 µM)	> 50 µg/mL	50 µg/mL (≈ 81.3 µM)	> 50 µg/mL
COc1ccc(F)cc1[C@H](Cn1c(=O)n(C(C)(C)C(N)=O)c(=O)c2c(C)c(-n3nccn3)sc21)OCC(C)C [Compound I-165]	–	–	–	–	–	–	–	–	2 µg/mL (≈ 3.58 µM)	2 µg/mL (≈ 3.58 µM)	2 µg/mL (≈ 3.58 µM)	≥ 0.08 µg/mL	2 µg/mL (≈ 3.58 µM)	> 50 µg/mL	2 µg/mL (≈ 3.58 µM)	> 50 µg/mL
COc1ccc(F)cc1[C@H](Cn1c(=O)n(C(C)(C)C(=O)N2CCCCC2)c(=O)c2c(C)c(-n3cccn3)sc21)OC1CCOCC1 [Compound I-166]	–	–	–	–	–	–	–	–	2 µg/mL (≈ 3.06 µM)	2 µg/mL (≈ 3.06 µM)	≥ 2 µg/mL	≥ 0.08 µg/mL	2 µg/mL (≈ 3.06 µM)	> 50 µg/mL	10 µg/mL (≈ 15.3 µM)	≥ 50 µg/mL
COc1ccc(F)cc1[C@H](Cn1c(=O)n(C(C)(C)C(=O)N2CCCC2)c(=O)c2c(C)c(-n3nccn3)sc21)OC[C@@H](C)O [Compound I-167]	–	–	–	–	–	–	–	–	2 µg/mL (≈ 3.25 µM)	≥ 0.4 µg/mL	2 µg/mL (≈ 3.25 µM)	≥ 0.08 µg/mL	2 µg/mL (≈ 3.25 µM)	50 µg/mL (≈ 81.3 µM)	≥ 0.4 µg/mL	> 50 µg/mL
COc1ccc(F)cc1[C@H](Cn1c(=O)n(C(C)(C)C(N)=O)c(=O)c2c(C)c(-n3cccn3)sc21)OC1CCC(=O)CC1 [Compound I-170]	–	–	–	–	–	–	–	–	10 µg/mL (≈ 16.7 µM)	≥ 50 µg/mL	50 µg/mL (≈ 83.7 µM)	≥ 2 µg/mL	> 50 µg/mL	> 50 µg/mL	50 µg/mL (≈ 83.7 µM)	> 50 µg/mL
COCCO[C@@H](Cn1c(=O)n([C@@H](C)C(=O)NC(C)C)c(=O)c2c(C)c(-n3nccn3)sc21)c1cc(F)ccc1OC [Compound I-172]	–	–	–	–	–	–	–	–	2 µg/mL (≈ 3.4 µM)	50 µg/mL (≈ 84.9 µM)	10 µg/mL (≈ 17 µM)	2 µg/mL (≈ 3.4 µM)	50 µg/mL (≈ 84.9 µM)	> 50 µg/mL	10 µg/mL (≈ 17 µM)	> 50 µg/mL
